Earlier results as cited in patent publication US12064376B2, “Rho kinase inhibitor releasing implants and related methods of use” (priority 2020, dated 2024).

Experiments:
[1] = tested on: Porcine corneal endothelial cells (CECs); details: 10 μM Y-27632 or 2.5 μM H-1152, 2, 24 and 48 hours
[2] = tested on: rabbit model of corneal endothelial dysfunction; details: 1 mM topical, 2 drops QID three days then TID seven days
[3] = tested on: monkey model of corneal endothelial cell damage
[4] = tested on: human corneal endothelial cells (HCEC); details: ripasudil 0.3 to 30 μM, 48 hours, HCEC in vitro
[5] = tested on: rabbit corneal endothelial damage model; details: freeze model, topical 0.4% or 0.8% drops BID or QID
[6] = tested on: rabbit corneal endothelial damage model; details: scrape model
failed descemetorhexis = details: patient with failed descemetorhexis
[7] = at 1 year, MCEC and ROCK inhibitor eyes
[8] = by 24 weeks, eleven patients, 1×10^6 human CECs per 300 μL with Y-27632

Cc1cncc2cccc(S(=O)(=O)N3CCCNC[C@@H]3C)c12 [H-1152]
cell morphology [1]: monolayer with polygonal structure and tight junctions | migration of cells from the scratch [1]: enhanced | corneal thickness versus controls [2]: less

C[C@@H](N)[C@H]1CC[C@H](C(=O)Nc2ccncc2)CC1 [Y-27632]
cell morphology [1]: monolayer with polygonal structure and tight junctions | migration of cells from the scratch [1]: enhanced | survival and engraftment of injected cultured endothelial cells ([3]; 5×10^5 CECs in 200 μl with ROCK inhibitor, intracameral): enhanced | adverse events ([3]; MCEC with concomitant ROCK inhibitor, intracameral injection): without adverse events such as glaucoma | corneal clarity [3, 7]: clear corneas | corneal endothelial cell density [3, 7]: 2000 cells/mm^2 | preserving corneal clarity (Fuch's corneal dystrophy; Fuch's corneal dystrophy, eye drop): effective | corneal thickening (Fuch's corneal dystrophy; Fuch's patients): decrease | efficacy by severity of corneal endothelial dysfunction (Fuch's corneal dystrophy; mild (central edema) versus severe (diffuse edema)): effective in mild cases (central edema) of corneal endothelial dysfunction, but not severe (diffuse edema) | number of patients with >500 cells/mm^2 (bullous keratopathy; [8]): 11 | number of patients with >1000 cells/mm^2 (bullous keratopathy; [8]): 10 | adverse events (bullous keratopathy; eleven patients): One case of steroid induced intraocular pressure (IOP) and no other adverse events | corneal thickness (bullous keratopathy; in all but 1 case, corneas became clear): < 630 μm

C[C@H]1CNCCCN1S(=O)(=O)c1cccc2cncc(F)c12 [ripasudil]
DNA and endothelial cell proliferation [4]: significantly enhanced | corneal haze versus controls [5]: less hazy corneas | proliferation in treated eyes [5]: better in the ROCK inhibitor treated eyes in a dose dependent fashion | wound size versus controls [5]: smaller | treated eyes clear ([6]; day 14, control 0/6): 5/6 | corneal thickening ([6]; no change with control): ⅓ | outcome of case study (failed descemetorhexis): salvaged patient
